Reference: paper PMC7811125, “Red-shifted click beetle luciferase mutant expands the multicolor bioluminescent palette for deep tissue imaging” (iScience, 2020)
Where a name gives a salt, the structure may show the parent alone.

Target: T1, Akaluc (Photinus pyralis, UniProt P08659)
T1 construct: Akaluc, multiply mutated firefly luciferase; stably expressed in HEK cells
Assay: live-cell bioluminescence imaging
Type: cell-based
Details: HEK cells expressing Akaluc; 0.1 mM substrate; 660 nm filter

T1 sequence (P08659 whole entry): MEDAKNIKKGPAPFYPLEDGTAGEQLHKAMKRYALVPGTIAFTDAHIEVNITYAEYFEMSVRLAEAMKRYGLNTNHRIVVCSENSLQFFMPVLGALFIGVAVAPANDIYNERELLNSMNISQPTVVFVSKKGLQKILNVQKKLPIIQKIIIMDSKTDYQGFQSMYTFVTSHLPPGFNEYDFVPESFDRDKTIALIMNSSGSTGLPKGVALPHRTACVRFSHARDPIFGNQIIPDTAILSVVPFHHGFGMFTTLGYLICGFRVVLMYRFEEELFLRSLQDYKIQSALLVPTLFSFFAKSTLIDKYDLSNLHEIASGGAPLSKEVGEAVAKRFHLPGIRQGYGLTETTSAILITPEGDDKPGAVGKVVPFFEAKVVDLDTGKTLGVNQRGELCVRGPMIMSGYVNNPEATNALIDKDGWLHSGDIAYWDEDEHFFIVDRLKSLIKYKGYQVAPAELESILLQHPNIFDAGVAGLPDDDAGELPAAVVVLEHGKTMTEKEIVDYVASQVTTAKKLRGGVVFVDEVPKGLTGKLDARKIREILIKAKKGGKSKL

For CN(C)c1ccc(/C=C/C=C/C2=N[C@@H](C(=O)O)CS2)cc1 [AkaLumine-HCl], the live-cell bioluminescence imaging was “Akaluc yielded the brightest photon emission with AkaLumine-HCl”.
